From ChEMBL document CHEMBL1201862, “PubChem BioAssay data set” (2004)
The source made the active and inactive calls.

How the values were obtained:
[1] = molecular target: T1, Corticotropin-releasing factor receptor 2/Corticotropin-releasing factor-binding protein (Homo sapiens, UniProt P24387+Q13324); assay: Dose Response confirmation of uHTS hits for small molecule antagonists of the CRF-binding protein and CRF-R2 receptor complex.; type: functional; conditions: read-out: IC50_Mean
T1 sequence (Q13324 whole entry): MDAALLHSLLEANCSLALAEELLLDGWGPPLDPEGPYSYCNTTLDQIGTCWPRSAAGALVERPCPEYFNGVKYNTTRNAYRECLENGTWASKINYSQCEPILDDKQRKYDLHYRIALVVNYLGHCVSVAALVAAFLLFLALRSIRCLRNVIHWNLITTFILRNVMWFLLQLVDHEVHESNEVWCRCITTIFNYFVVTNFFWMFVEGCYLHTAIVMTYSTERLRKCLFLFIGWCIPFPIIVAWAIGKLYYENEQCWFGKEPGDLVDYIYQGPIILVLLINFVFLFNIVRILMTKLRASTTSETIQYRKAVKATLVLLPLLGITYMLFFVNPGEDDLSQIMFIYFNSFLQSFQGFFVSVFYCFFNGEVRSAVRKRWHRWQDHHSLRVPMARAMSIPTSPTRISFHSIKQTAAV
T1 sequence (P24387 whole entry): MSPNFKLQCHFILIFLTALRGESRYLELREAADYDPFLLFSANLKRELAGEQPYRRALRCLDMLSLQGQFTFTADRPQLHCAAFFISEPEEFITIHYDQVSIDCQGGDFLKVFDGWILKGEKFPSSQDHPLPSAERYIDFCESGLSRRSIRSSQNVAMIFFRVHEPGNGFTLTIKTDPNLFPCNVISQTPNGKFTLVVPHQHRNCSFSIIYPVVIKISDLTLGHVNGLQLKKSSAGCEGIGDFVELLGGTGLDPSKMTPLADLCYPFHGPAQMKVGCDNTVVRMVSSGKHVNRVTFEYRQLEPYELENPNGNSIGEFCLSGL

[2] = molecular target: T1, Corticotropin-releasing factor receptor 2/Corticotropin-releasing factor-binding protein; assay: activators of CRF receptor 2 with binding protein – uHTS hits, confirmation (AID 602473); type: functional; conditions: read-out: EC50_Mean
[3] = molecular target: Luciferin 4-monooxygenase (Photinus pyralis, UniProt P08659); assay: inhibition of purified Photinus pyralis luciferase – biochemical, luminescence, dose response (AID 1891)
Sequence of Luciferin 4-monooxygenase (P08659 whole entry): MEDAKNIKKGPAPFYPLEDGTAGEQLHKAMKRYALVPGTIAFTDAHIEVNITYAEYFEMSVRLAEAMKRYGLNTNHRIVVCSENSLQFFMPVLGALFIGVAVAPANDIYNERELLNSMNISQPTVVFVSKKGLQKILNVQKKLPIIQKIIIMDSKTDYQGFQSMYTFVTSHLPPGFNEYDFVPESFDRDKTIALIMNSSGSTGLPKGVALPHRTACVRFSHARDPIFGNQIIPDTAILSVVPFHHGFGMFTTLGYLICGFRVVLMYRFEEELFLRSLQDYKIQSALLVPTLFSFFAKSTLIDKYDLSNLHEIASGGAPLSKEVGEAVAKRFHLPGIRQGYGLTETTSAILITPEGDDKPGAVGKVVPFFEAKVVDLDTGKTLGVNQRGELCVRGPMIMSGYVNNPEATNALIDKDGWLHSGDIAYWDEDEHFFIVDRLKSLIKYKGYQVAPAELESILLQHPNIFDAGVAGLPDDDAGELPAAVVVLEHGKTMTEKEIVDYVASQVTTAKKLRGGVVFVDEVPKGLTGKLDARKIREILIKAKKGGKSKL

[4] = Luminescence Cell-Based Dose Confirmation HTS to Identify Inhibitors of Platelet Dense Granule Release. [Related pubchem assays: 1663 (Primary HTS), 1678 (Summary of Project)]; type: functional
[5] = NIH-3T3 fibroblast cytotoxicity, dose response, cytotoxicity control, cell-based, fluorescence, Alamar Blue, secondary assay (AID 2327); type: functional;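 also: NIH-3T3 mouse fibroblasts cultured with fluconazole at 8 µg/mL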
[6] = molecular target: FAD-linked sulfhydryl oxidase ALR (Homo sapiens, UniProt P55789); assay: ALR-catalysed DTT oxidation blockers – biochemical, H2O2 detection, luminescence, cherry-pick, dose response (AID 493248)
Sequence of FAD-linked sulfhydryl oxidase ALR (P55789 whole entry): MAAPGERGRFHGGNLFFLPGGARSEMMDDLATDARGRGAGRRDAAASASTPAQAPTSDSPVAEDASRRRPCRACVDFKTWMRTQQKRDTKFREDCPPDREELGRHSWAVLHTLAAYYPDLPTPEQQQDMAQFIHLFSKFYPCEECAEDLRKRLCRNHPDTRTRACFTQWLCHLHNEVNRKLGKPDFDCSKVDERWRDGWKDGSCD

[7] = viability of PTEN-deleted HCT116 cells – cell-based, HCT116 PTEN knockout, dose response (AID 1047); type: functional;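 also: HCT116 colon tumor cells with PTEN knocked out; cells exposed to compound for 60 hours before readout; potency for loss of cell viability measured by luminescence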
[8] = viability of HCT116 lacking mutant beta-catenin – cell-based, human colon tumor, dose response (AID 1045); type: functional;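 also: HCT116 colon tumor cells with beta catenin knocked out; cells exposed to compound for 60 hours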
[9] = molecular target: T2, Heat shock factor protein 1 (Mus musculus, UniProt P38532); assay: decrease of HSF1-responsive luciferase luminescence – cell-based, NIH3T3, dose retest, confirmation (AID 2382); type: functional;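 also: NIH3T3 fibroblasts with HSF1-driven luciferase reporter stressed by proteasome inhibitor MG132; luminescence from HSF1-driven luciferase expression after 8 hours of MG132 stress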
T2 sequence (P38532 whole entry): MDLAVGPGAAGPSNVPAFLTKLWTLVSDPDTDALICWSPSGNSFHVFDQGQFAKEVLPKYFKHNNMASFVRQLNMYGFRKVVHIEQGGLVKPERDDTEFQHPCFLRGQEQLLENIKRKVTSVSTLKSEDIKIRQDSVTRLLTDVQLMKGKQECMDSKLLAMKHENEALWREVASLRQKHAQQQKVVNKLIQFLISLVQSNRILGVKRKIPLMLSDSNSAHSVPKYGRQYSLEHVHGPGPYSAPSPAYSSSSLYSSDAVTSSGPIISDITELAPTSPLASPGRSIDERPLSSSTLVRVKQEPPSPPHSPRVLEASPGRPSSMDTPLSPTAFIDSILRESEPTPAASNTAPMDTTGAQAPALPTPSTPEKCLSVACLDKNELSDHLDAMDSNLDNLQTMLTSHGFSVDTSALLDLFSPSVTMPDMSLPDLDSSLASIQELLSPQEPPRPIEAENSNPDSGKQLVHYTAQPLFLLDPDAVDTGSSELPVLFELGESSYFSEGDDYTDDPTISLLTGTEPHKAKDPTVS

Cytochrome P450 2C19 = Cytochrome P450 2C19 (Homo sapiens, UniProt P33261); assay: Cytochrome panel assay with activity outcomes. Panel member name: p450-cyp2c19 Compounds with AC50 equal or less than 10 uM are considered active; type: functional; conditions: read-out: AC50
Sequence of Cytochrome P450 2C19 (P33261 whole entry): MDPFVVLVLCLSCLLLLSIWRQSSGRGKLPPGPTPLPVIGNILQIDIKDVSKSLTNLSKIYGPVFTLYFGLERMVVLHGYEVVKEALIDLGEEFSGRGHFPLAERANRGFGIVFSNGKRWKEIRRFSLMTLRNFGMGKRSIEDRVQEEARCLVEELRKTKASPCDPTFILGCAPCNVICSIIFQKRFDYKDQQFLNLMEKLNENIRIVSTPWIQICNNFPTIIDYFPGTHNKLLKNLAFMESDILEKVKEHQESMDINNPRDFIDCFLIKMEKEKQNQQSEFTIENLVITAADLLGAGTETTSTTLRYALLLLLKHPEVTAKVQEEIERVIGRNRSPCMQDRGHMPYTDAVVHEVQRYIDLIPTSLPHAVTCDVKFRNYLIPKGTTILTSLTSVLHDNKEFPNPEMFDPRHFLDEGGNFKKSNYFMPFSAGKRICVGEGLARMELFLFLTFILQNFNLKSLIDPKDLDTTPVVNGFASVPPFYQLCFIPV

Cytochrome P450 3A4 = Cytochrome P450 3A4 (Homo sapiens, UniProt P08684);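 also: CYP3A4 tested as one member of a cytochrome P450 panel screen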
Sequence of Cytochrome P450 3A4 (P08684 whole entry): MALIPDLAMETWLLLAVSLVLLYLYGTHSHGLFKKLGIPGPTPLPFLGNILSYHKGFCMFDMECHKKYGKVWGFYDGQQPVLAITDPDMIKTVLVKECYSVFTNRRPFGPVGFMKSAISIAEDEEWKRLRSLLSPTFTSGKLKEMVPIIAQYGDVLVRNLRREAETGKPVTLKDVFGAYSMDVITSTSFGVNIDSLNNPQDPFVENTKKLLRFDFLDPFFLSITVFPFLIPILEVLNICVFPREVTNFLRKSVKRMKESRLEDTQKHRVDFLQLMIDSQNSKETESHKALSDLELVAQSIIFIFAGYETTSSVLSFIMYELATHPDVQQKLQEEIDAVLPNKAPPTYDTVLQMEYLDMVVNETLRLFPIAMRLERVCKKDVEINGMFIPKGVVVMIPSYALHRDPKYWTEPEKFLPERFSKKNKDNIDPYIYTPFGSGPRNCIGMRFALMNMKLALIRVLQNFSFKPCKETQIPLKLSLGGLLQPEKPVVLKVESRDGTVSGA

Cytochrome P450 2C9 = Cytochrome P450 2C9 (Homo sapiens, UniProt P11712)
Sequence of Cytochrome P450 2C9 (P11712 whole entry): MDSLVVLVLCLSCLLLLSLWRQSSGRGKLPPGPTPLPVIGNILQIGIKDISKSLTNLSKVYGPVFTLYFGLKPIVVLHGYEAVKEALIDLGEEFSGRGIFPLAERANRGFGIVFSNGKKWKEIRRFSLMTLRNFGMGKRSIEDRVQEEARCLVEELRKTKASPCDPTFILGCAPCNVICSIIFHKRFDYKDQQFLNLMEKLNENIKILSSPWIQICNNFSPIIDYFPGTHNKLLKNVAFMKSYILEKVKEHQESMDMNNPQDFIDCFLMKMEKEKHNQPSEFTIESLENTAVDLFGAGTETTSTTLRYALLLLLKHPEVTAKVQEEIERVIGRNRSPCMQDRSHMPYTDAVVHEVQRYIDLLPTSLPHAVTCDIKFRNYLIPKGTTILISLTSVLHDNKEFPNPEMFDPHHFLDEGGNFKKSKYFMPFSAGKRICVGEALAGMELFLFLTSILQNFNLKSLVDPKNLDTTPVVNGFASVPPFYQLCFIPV

[10] = viability of uninfected HEp-2 cells – cell-based, HTS, cytotoxicity control for RSV inhibitor project, dose response (AID 2410); type: functional; conditions: human respiratory syncytial virus
H9c2 = assay: cells; type: functional, cell-based; conditions: Rattus norvegicus, H9c2, Myocardium;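 also: confirmatory concentration-response retest of ultra-high-throughput screening hits for modulation of myocardial damage; cell death induced by hydrogen peroxide oxidative stress; compound pretreatment for 60 min then peroxide exposure for 2 h; potency is for protecting the cells against peroxide damage rather than for killing them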
Cytochrome P450 2D6 = Cytochrome P450 2D6 (Homo sapiens, UniProt P10635);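 also: CYP2D6 member of a cytochrome P450 panel assay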
Sequence of Cytochrome P450 2D6 (P10635 whole entry): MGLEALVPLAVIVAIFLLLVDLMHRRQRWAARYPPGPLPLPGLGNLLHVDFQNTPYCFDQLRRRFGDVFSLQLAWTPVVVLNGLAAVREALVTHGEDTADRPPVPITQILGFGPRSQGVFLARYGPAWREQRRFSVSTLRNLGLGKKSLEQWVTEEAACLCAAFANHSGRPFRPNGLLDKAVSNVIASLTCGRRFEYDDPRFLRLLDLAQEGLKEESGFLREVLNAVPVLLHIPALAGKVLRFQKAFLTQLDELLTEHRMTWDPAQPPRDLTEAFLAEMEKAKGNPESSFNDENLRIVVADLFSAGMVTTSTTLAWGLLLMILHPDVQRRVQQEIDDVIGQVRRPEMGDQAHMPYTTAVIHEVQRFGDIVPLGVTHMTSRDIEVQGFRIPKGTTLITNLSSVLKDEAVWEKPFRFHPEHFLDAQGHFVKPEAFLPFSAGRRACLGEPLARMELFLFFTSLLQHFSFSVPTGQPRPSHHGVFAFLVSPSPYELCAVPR

Structure (SMILES) | IC50 [1] | EC50 [2] | EC50 [3] | EC50 [4] | further results
Cc1noc(C)c1S(=O)(=O)N1CCC(C(=O)N2CCN(c3ccc(F)cc3)CC2)CC1 | > 47.1 µM (inactive) | > 53 µM (inactive) | – | – | –
CCN(CC)C(=O)CSc1ncnc2c(-c3ccc(OC)cc3)nsc12 | – | – | > 112 µM (not active) | > 112 µM (not active) | –
COc1ccc(C2=CSC3=NNC4(CCCCC4)NN23)cc1 | – | – | – | – | EC50 [5]: 38.8 µM (active); AC50 [6]: 1.42 µM (active)
CCCCc1ccc(C2C3=C(CC(C)(C)CC3=O)N=C3C2=C(O)c2ccccc23)cc1 (configuration not stated) | – | – | – | – | EC50 [7]: 13.2 µM (active); EC50 [8]: 18.2 µM (active)
COc1cccc(N2CCN(Cc3cccc(Cl)c3)CC2)c1 | – | – | > 112 µM (not active) | > 112 µM (not active) | –
COc1ccc(NC(=O)CC2C(=O)Nc3ccccc3N2CC(=O)N2CCCC2)cc1 (configuration not stated) | – | – | – | – | AC50 [6]: 6.65 µM (active)
COc1ccc(C(C)=O)cc1CSc1nnc2c(Cl)cc(Cl)cn12 | > 47.1 µM (inactive) | > 53 µM (inactive) | – | – | –
CCOc1ccc(-c2cc(C(=O)NCC3CCCO3)c3ccccc3n2)cc1 (configuration not stated) | – | – | 47.2 µM (active) | > 112 µM (not active) | –
O=C(Nc1ccccc1N1CCCCC1)C1CCN(C(=O)c2ccc(Cl)cc2)CC1 | > 47.1 µM (inactive) | > 53 µM (inactive) | – | – | EC50 [9]: > 195 µM (not active)
O=C(COc1ccccc1F)N1CCN(CCN2C(=O)c3cccc4cccc(c34)C2=O)CC1 | > 47.1 µM (inactive) | > 53 µM (inactive) | – | – | –
Cn1c(=O)oc2cc(S(=O)(=O)N3CCN(c4cccc(Cl)c4)CC3)ccc21 | – | – | > 112 µM (not active) | > 112 µM (not active) | –
C#CCN1C(=O)C(O)(CC(=O)c2ccc(OC)c(OC)c2)c2ccccc21 (configuration not stated) | – | – | – | – | EC50 [7]: 18 µM (active); EC50 [8]: 21.2 µM (active)
COc1ccc(-c2cc(C(F)(F)F)c(C#N)c(SCC(=O)Nc3nc(C)co3)n2)cc1 | – | – | – | – | EC50 [7]: 10.9 µM (active); EC50 [8]: 9.24 µM (active)
CC(C)c1ccc(NC(=S)NN2CCOCC2)cc1 | > 47.1 µM (inactive) | > 53 µM (inactive) | – | – | –
Cc1ccccc1CNC(=O)Nc1cccs1 | > 47.1 µM (inactive) | > 53 µM (inactive) | – | – | –
Cc1ccc(CNC(=O)CN(c2ccc(C)cc2)S(=O)(=O)c2c(C)nn(C)c2C)cc1 | > 47.1 µM (inactive) | > 53 µM (inactive) | – | – | –
Cc1ccc(S(=O)(=O)CCC(=O)Nc2cc(Cl)ccc2-n2cncn2)cc1 | > 47.1 µM (inactive) | > 53 µM (inactive) | – | – | –
Cc1ccc(-n2nc3ccc(NC(=O)/C=C/c4ccco4)cc3n2)cc1C | – | – | – | – | EC50 [7]: 8.83 µM (active); EC50 [8]: 11.7 µM (active)
CC(=O)NC(C)C(c1cccs1)N1CCN(c2ccccc2)CC1 (configuration not stated) | – | – | – | – | AC50 [6]: 0.273 µM (active); AC50 (Cytochrome P450 2C19): 3.98 µM (inconclusive); AC50 (Cytochrome P450 3A4): 39.8 µM (inconclusive); AC50 (Cytochrome P450 2C9): 11.2 µM (inconclusive)
CC(=O)N1N=C(C)CC1c1ccc(OCc2ccccc2)cc1 (configuration not stated) | > 47.1 µM (inactive) | > 53 µM (inactive) | – | – | –
COc1cccc(-c2nn(-c3ccccc3)cc2C(=O)O)c1 | – | – | > 112 µM (not active) | > 112 µM (not active) | –
Cn1c(=O)oc2cc(S(=O)(=O)NCCC(=O)NCc3ccc(F)cc3)ccc21 | > 47.1 µM (inactive) | > 53 µM (inactive) | – | – | –
C=CCn1c(SCc2ccc(F)cc2)nc2c1c(=O)[nH]c(=O)n2C | > 47.1 µM (inactive) | > 53 µM (inactive) | – | – | –

Structure (SMILES) | IC50 [1] | EC50 [2] | EC50 [3] | EC50 [4] | further results
CC(C)c1nnc(NC(=O)CCC(=O)N2CCN(c3ccc(F)cc3)CC2)s1 | – | – | > 112 µM (not active) | > 112 µM (not active) | –
Cc1ccc(-c2nn(C)c(=O)c3ccccc23)cc1CO | > 47.1 µM (inactive) | > 53 µM (inactive) | – | – | –
CCOC(=O)c1c(C)c(-c2ccccc2)n(CC(=O)N2CCCC2)c1C | – | – | > 112 µM (not active) | > 112 µM (not active) | –
O=C(CN1CCN(C(=O)c2ccco2)CC1)Nc1c2c(nc3c1CCC3)CCCC2 | > 47.1 µM (inactive) | > 53 µM (inactive) | – | – | –
Cc1nnc(SCC(=O)N(C)c2c(N)n(Cc3ccccc3)c(=O)[nH]c2=O)n1Cc1ccccc1 | > 47.1 µM (inactive) | > 53 µM (inactive) | – | – | –
Cc1nc2cc(N3CCCCC3)c(NC(=O)c3ccncc3)cc2c(=O)n1Cc1ccc(Cl)cc1 | – | – | – | – | EC50 [7]: 3.49 µM (active); EC50 [8]: 3.8 µM (active)
COc1cc(/C=C(\C#N)c2nc3ccccc3[nH]2)cc(Br)c1OCc1ccccc1 | – | – | – | – | EC50 [7]: 15.8 µM (active); EC50 [8]: 16.7 µM (active)
CCOC(=O)C(C)Oc1cccc2c(=O)n(CC(=O)NCCc3ccc(OC)c(OC)c3)ccc12 (configuration not stated) | – | – | > 112 µM (not active) | > 112 µM (not active) | –
COc1ccccc1CNC(=O)c1cccc(N(C)C)c1 | – | – | > 112 µM (not active) | > 112 µM (not active) | –
CC(=O)c1cccc(Nc2nc3ccccc3n3cnnc23)c1 | < 0.368 µM (active) | > 53 µM (inactive) | – | – | CC50 [10]: 43.9 µM (active); IC50 (H9c2): > 79 µM (inactive)
CCCCn1c(SCN2C(=O)c3ccccc3C2=O)nc2cc(S(N)(=O)=O)ccc21 | – | – | > 112 µM (not active) | > 112 µM (not active) | –
Cc1cc(F)ccc1NC(=O)c1cc(S(=O)(=O)N2CCCC2)cn1C | – | – | > 112 µM (not active) | > 112 µM (not active) | –
Cc1ccc(C(=O)N2CCN(c3ccc([N+](=O)[O-])c(NCc4ccco4)c3)CC2)cc1 | – | – | 41.3 µM (active) | > 112 µM (not active) | –
COc1cc2c(cc1OC)-c1cc(NC3CC3)nc(=O)n1CC2 | – | – | > 112 µM (not active) | 17.6 µM (active) | –
CCCCC1(CCCC)C(=O)N=C(Nc2cccc(C)c2)NC1=O | > 47.1 µM (inactive) | 3.98 µM (active) | – | – | EC50 [7]: 12.1 µM (active); EC50 [8]: 12.2 µM (active); AC50 (Cytochrome P450 2D6): 14.1 µM (inconclusive)
CN(Cc1cnccn1)C(=O)CC1C(=O)NCCN1Cc1cccc(Oc2ccccc2)c1 (configuration not stated) | – | – | > 112 µM (not active) | > 112 µM (not active) | –
CCC(C)C(=O)Nc1nnc(SCC(=O)NC(C)(C)C)s1 (configuration not stated) | > 47.1 µM (inactive) | > 53 µM (inactive) | – | – | –
CCCN(CCC)S(=O)(=O)c1ccc(C(=O)Nc2nnc(CSC)o2)cc1 | – | – | – | – | EC50 [7]: 14.2 µM (active); EC50 [8]: 12.7 µM (active)
O=C1CCC(C(=O)Nc2ccccc2N2CCCC2)=NN1 | – | – | – | – | AC50 [6]: 3.7 µM (active)
CC(=O)C1=C(C)N=C(S)NC1c1cc([N+](=O)[O-])ccc1O (configuration not stated) | > 47.1 µM (inactive) | > 53 µM (inactive) | – | – | –
CCOC(=O)c1c(Nc2ccc(Cl)cc2)sc(/C=C2\C=Nc3ccccc32)c1O | – | – | – | – | EC50 [7]: 6.61 µM (active); EC50 [8]: 6.74 µM (active)
COc1cccc(C(=O)N/N=C/C(Br)=C/c2ccccc2)c1 | – | – | – | – | EC50 [7]: 6.24 µM (active); EC50 [8]: 6.47 µM (active)
COc1cccc(/C=N/NC(=O)NC2CCCCC2)c1O | – | – | – | – | AC50 [6]: 3.71 µM (active)
